From patent publication US20160081980A1, “Composition Comprising AMD3100 For Preventing or Treating Bone Diseases” (KYUNGPOOK NATIONAL UNIVERSITY INDUSTRY-ACADEMIC COOPERATION …, priority 2013, published 2016)

Assays:
OVX mice [1] = conditions: AMD3100-treated OVX mice compared to PBS-treated OVX mice, 21 days; FIG. 5
Method: 12-week-old female C57BL/6 mice were purchased from Jackson Laboratory (Bar Harbor, ME). Mice were housed in an air-conditioned room with a 12 hour light/dark cycle at a temperature of 22±2° C. and humidity of 45-65%, and given free access to food and tap water. Mice underwent either sham surgery or ovariectomy (OVX) at 12 weeks of age and were sacrificed at 16 weeks of age. One week after surgery, sham-operated and OVX mice received an intraperitoneal injection with AMD3100 (Sigma-Aldrich #A5602, St. Louis, Mo., sigma Aldrich.com) (5 mg/kg/day) or PBS for 21 days. At the end of treatment, the mice were sacrificed, and blood samples were collected by cardiac puncture for the colony-forming unit (CFU) assay.
Single-cell suspensions of peripheral blood (PB) after ammonium chloride lysis were plated into 35 mm dishes (3×10^5 cells/plate) with MethoCult GF M3434 (StemCell Technologies). Hematopoietic colonies were counted and scored after incubation for 12-14 days at 37° C., 5% CO2, as instructed by the manufacturer.
In order to determine whether AMD3100 may mobilize HSPCs from bone marrow in OVX mice, AMD3100 or PBS was administered to OVX mice for 21 days.

OVX mice [2] = system: OVX mice
[3] = system: Osteocalcin, PTHR1, Osterix, Runx2; conditions: bone marrow of OVX and control mice, real-time PCR; FIG. 4
BM-derived macrophages = conditions: RANKL 100 ng/ml, M-CSF 30 ng/ml, AMD3100 25 mg/ml for 3 days; FIG. 10
Method: Total RNA was extracted from BM cultures treated with or without RANKL in the presence or absence of AMD3100 (25 g/ml) for 3 days. […] RNA samples were extracted from whole bone marrow (BM) cells of four individual animals per group and isolated from the cultured cells using the RNeasy Mini kit (Qiagen, Hilden, Germany), and the concentration was determined using a Nanodrop ND-1000 spectrophotometer. A total of 5 mg of each RNA was converted to cDNA using the sprint RT complete-oligo (dT) 18 (Clontech, MountainView, Calif., www.clontech.com) according to the manufacturer's guide. The cDNA was quantified using the QuantiTect SYBR Green PCR Kit (Qiagen). The following reaction components were added to each investigated transcript to the indicated end-concentration: forward primer (5 pM), reverse primer (5 pM), and QuantiTect SYBR Green PCR Master mix. The 10 μl master-mix was added to a 0.1 ml tube, and 5 μl volume, containing 100 ng reverse transcribed total RNA, was added as polymerase chain reaction (PCR) template. The tubes were closed, centrifuged, and placed into the Corbett research RG-6000 real-time PCR machine (Corbett LifeScience, Sydney, Australia). The following primers were used: Bone marrow cells were obtained from the femurs and tibias of seven-week-old mice. The bone marrow suspension was added to plates along with macrophage colony stimulating factor (M-CSF; 30 ng/ml). […]

SDF-1 = conditions: AMD3100 5 mg/kg/day intraperitoneal for 21 days vs PBS
OVX mice [4] = conditions: AMD3100-treated vs PBS-treated OVX mice; did not reach statistical significance; FIGS. 6 & 7
Method: 12-week-old female C57BL/6 mice were purchased from Jackson Laboratory (Bar Harbor, ME). Mice were housed in an air-conditioned room with a 12 hour light/dark cycle at a temperature of 22±2° C. and humidity of 45-65%, and given free access to food and tap water. Mice underwent either sham surgery or ovariectomy (OVX) at 12 weeks of age and were sacrificed at 16 weeks of age. One week after surgery, sham-operated and OVX mice received an intraperitoneal injection with AMD3100 (Sigma-Aldrich #A5602, St. Louis, Mo., sigma Aldrich.com) (5 mg/kg/day) or PBS for 21 days. At the end of treatment, the mice were sacrificed, and blood samples were collected by cardiac puncture for the colony-forming unit (CFU) assay. Femora were removed, fixed with 4% paraformaldehyde in phosphate-buffered physiological saline solution (pH 7.4) for 16 hours, and then stored at 4° C. in 80% ethanol for measurement of bone density.
Bone marrow cells from the femurs and tibias were collected by flushing with 20 ml PBS passed through a 25-gauge needle. After centrifugation at 1,300 rpm for 5 minutes, the supernatant was removed and the cells were then washed by ammonium chloride lysis. […]

OVX mice [5] = conditions: AMD3100-treated vs PBS-treated OVX mice

SMILES: c1cc(CN2CCCNCCNCCCNCC2)ccc1CN1CCCNCCNCCCNCC1 [AMD3100, 1,1′-[1,4-Phenylenebis(methylene)]bis[1,4,8,1]-tetraazacyclotetradecanel]
- number of CFU cells in blood (OVX mice [1]): significant increase
- osteoblast number/bone surface [N.Ob/BS (/mm)] (OVX mice [2]; H&E staining, AMD3100 treatment groups, FIG. 13): did not change significantly
- number and size of TRAP+ active osteoclasts in the trabecular region (OVX mice [2]; TRAP staining, AMD3100-treated OVX mice, FIG. 11): decrease
- osteoclast number/bone surface [N.Oc/BS (/mm)] (OVX mice [2]; histomorphometry, AMD3100-treated vs PBS-treated OVX mice, FIG. 12): decrease
- levels of osteoblast lineage-specific genes (Osteocalcin, PTHR1, Osterix, Runx2) [3]: no significant differences
- osteoclast differentiation (expression of genes associated with osteoclast differentiation) (BM-derived macrophages): did not affect osteoclast differentiation
- levels of functional SDF-1 in bone marrow (SDF-1; bone marrow supernatant, FIG. 2): decreased
- levels of functional SDF-1 in plasma (SDF-1; plasma, FIG. 3): increased
- percentage of Lin-Sca-1+c-Kit+ (LSK) cells in bone marrow (OVX mice [4]): decrease
- bone density in micro-CT images of the distal femur (OVX mice [5]; FIG. 8): increased bone density
- bone mineral density (BMD) (OVX mice [5]; FIG. 9): increase
